Laboratory results as given in ChEMBL document CHEMBL1201862, “PubChem BioAssay data set” (2004).
Values belong to the molecule of their own block, whether it stands above or below them. Active and inactive are the calls of the source.

Assays:
Paired box protein Pax-8 = Paired box protein Pax-8 (Homo sapiens, UniProt Q06710); assay: inhibitors of PAX8-driven TPO luciferase reporter, dose response, RMG-I cells, cherry-pick (AID 687027); format: functional, cell-based;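 also: luciferase reporter driven by Pax8 target thyroperoxidase promoter measured by SteadyGlo luminescence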
[1] = target: T1, Heat shock factor protein 1 (Mus musculus, UniProt P38532); assay: HSF1 potentiators in luciferase reporter cells, confirmation, cell-based, NIH3T3, luminescence, dose retest (AID 435004); format: functional;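 also: stress induced by proteasome inhibitor MG132 added 30 min after compound; luciferase reporter driven by HSF1 response element in NIH3T3 cells; actives raise luminescence as potentiators of the MG132 stress response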
T1 sequence (P38532 whole entry): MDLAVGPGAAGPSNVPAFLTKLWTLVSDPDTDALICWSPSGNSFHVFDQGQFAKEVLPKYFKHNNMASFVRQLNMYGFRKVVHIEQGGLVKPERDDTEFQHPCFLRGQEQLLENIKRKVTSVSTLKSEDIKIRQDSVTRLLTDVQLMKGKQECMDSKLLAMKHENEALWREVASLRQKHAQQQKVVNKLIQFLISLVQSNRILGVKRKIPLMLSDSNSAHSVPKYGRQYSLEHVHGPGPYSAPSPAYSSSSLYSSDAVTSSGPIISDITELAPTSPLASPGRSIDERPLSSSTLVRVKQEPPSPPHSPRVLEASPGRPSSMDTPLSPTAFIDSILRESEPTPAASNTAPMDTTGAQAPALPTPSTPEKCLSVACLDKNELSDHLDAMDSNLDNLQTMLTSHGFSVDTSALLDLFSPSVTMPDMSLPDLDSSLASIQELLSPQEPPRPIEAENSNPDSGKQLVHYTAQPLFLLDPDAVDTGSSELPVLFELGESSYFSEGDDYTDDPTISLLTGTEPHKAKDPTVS

Cytochrome P450 2D6 = Cytochrome P450 2D6 (Homo sapiens, UniProt P10635);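 also: CYP2D6 member of a cytochrome P450 panel assay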
Cytochrome P450 1A2 = target: T2, Cytochrome P450 1A2 (Homo sapiens, UniProt P05177);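 also: PubChem cytochrome P450 panel assay, CYP1A2 panel member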
T2 sequence (P05177 whole entry): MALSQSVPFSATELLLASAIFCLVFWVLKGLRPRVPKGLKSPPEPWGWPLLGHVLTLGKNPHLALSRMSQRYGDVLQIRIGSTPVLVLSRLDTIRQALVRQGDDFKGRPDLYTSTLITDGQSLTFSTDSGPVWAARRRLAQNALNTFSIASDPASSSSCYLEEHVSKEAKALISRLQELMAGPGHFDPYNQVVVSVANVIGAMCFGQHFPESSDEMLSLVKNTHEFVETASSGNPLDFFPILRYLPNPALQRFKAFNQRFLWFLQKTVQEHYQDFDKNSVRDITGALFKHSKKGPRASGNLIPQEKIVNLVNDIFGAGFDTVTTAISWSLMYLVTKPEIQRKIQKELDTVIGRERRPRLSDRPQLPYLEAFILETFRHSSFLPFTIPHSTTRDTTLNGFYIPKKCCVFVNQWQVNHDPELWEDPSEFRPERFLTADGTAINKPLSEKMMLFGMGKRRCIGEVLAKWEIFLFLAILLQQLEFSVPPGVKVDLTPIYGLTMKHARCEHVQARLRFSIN

Cytochrome P450 2C9 = Cytochrome P450 2C9 (Homo sapiens, UniProt P11712)
Cytochrome P450 2C19 = Cytochrome P450 2C19 (Homo sapiens, UniProt P33261); assay: Cytochrome panel assay with activity outcomes. Panel member name: p450-cyp2c19 Compounds with AC50 equal or less than 10 uM are considered active; format: functional; settings: read-out: AC50
Chain of Cytochrome P450 2C19 (P33261 whole entry): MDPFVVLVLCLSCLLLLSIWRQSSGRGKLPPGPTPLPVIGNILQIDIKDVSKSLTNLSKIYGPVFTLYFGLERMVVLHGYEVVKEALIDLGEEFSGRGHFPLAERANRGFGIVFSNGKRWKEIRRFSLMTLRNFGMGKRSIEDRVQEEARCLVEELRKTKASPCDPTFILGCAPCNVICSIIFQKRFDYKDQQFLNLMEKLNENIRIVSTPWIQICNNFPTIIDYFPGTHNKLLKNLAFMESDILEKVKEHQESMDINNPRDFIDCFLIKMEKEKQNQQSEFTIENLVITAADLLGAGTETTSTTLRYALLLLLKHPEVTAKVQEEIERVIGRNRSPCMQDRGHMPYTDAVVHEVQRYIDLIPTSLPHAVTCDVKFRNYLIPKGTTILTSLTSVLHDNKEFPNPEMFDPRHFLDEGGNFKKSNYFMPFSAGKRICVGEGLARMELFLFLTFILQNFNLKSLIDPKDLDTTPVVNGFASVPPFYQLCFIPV

Chain of Cytochrome P450 2C9 (P11712 whole entry): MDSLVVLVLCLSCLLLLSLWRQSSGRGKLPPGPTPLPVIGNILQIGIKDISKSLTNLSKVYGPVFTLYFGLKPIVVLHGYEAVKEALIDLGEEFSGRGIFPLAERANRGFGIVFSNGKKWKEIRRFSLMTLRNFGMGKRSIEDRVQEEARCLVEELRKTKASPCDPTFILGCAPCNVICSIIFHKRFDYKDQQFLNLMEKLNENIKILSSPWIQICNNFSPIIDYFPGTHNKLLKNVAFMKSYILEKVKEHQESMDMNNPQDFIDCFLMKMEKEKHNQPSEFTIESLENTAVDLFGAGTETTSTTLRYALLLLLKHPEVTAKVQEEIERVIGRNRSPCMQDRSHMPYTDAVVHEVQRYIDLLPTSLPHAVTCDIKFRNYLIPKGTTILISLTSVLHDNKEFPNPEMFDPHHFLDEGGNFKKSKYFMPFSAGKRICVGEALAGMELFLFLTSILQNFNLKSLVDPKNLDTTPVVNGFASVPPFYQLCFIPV
Chain of Cytochrome P450 2D6 (P10635 whole entry): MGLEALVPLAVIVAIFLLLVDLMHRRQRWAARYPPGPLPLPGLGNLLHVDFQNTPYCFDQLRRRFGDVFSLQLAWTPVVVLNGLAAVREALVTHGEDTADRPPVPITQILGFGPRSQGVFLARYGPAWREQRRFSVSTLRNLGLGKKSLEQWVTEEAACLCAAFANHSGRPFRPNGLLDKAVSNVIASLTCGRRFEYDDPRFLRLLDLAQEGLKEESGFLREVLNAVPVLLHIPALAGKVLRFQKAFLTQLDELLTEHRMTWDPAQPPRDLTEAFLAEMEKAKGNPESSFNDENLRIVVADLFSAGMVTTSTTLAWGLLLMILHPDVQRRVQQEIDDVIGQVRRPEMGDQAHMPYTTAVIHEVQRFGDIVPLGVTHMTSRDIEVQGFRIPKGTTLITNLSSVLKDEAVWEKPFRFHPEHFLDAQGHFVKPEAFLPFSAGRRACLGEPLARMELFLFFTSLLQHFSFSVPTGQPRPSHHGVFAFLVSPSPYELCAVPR
Chain of Paired box protein Pax-8 (Q06710 whole entry): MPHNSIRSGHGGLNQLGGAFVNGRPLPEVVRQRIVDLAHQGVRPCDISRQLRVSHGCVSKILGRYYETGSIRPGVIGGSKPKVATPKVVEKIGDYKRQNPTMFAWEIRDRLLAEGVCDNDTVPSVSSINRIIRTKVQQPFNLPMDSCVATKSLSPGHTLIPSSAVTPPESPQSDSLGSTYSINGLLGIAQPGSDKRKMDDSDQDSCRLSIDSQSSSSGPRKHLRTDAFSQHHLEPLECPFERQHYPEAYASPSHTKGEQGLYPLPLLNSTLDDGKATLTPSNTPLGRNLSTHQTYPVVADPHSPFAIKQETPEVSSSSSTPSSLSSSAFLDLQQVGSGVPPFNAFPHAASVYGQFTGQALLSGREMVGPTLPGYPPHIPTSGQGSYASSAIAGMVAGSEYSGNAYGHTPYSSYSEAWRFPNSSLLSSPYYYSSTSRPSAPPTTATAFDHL

Compound: O=C(Cc1ccccn1)N1CCCCN2[C@@H](CO)[C@@H](c3ccc(-c4ccc(F)cc4)cc3)[C@@H]2C1
AC50 (Paired box protein Pax-8): 22.6 µM (active)

Compound: COc1cc(CNc2ncnc3c2ncn3[C@H]2CN(Cc3ccc(-c4ccccc4)cc3)C[C@@H](CO)O2)cc(OC)c1OC
AC50 (Paired box protein Pax-8): 7.36 µM (active)

Compound: CC(=O)c1ccccc1NC(=O)C1C2CCC(O2)C1C(=O)O (stereo unspecified)
EC50 [1]: > 260 µM (inactive)

Compound: COCCNc1ccnc(-c2ccccc2CN(C)C)n1
AC50 (Cytochrome P450 2D6): 39.8 µM (inconclusive)

Compound: O[C@]1(c2ccccc2)c2ccccc2N=C2NCCN21
AC50 (Cytochrome P450 2D6): 2.51 µM (inconclusive)

Compound: O=C(NCc1cc(C(F)(F)F)cc(C(F)(F)F)c1)C1CC(c2cccc([N+](=O)[O-])c2)=NO1 (stereo unspecified)
EC50 [1]: 38.4 µM (active)

Compound: O=[N+]([O-])c1cccc(-c2ncc3ccccn23)c1
EC50 [1]: > 260 µM (inactive)

Compound: COCCN(CCOC)c1nc(-c2ccc(C)cc2)nc2ccccc12
EC50 [1]: > 260 µM (inactive)

Compound: CC1(C)C(=O)C(c2ccccc2)=C2CN3C(=O)N(CCc4ccccc4)C(=O)C3(Cc3ccc(F)cc3)C=C21 (stereo unspecified)
AC50 (Cytochrome P450 1A2): 15.8 µM (inconclusive) | AC50 (Cytochrome P450 2C9): 10 µM (inconclusive)

Compound: COC(=O)c1ccccc1N=C(S)N(Cc1ccc2c(c1)OCO2)Cc1cc2ccc(OC)cc2nc1O
EC50 [1]: > 260 µM (inactive)

Compound: N#Cc1ccc(CN2CC[C@@]3(CCCN(S(=O)(=O)c4ccccc4)C3)C2)cc1
AC50 (Cytochrome P450 1A2): 15.8 µM (inconclusive)

Compound: CC(C)(C)OC(=O)NCCCC[C@H](NC(=O)c1[nH]cnc1C(=O)N[C@@H](Cc1ccccc1)C(=O)OC(C)(C)C)C(=O)OC(C)(C)C
AC50 (Paired box protein Pax-8): 7.6 µM (active)

Compound: Cc1ccc2nc(-c3cccnc3)oc2c1
AC50 (Cytochrome P450 2C19): 28.2 µM (inconclusive) | AC50 (Cytochrome P450 2D6): 5.62 µM (inconclusive)

Compound: O=C(/C=C\c1ccc(O)c(O)c1)O[C@@H](Cc1ccc(O)c(O)c1)C(=O)O
AC50 (Cytochrome P450 1A2): 25.1 µM (inconclusive)

Compound: Cc1nc2c(C(=O)N3CCOCC3)cnn2c(C)c1Cc1ccc(Cl)cc1
AC50 (Cytochrome P450 2D6): 25.1 µM (inconclusive)

Compound: Nc1nc(N)c(/N=N\c2ccc([As](=O)(O)O)c(O)c2)c(N)n1
AC50 (Cytochrome P450 1A2): 6.31 µM (inconclusive)

Compound: CCCCC(=O)Nc1ccc(C)c(O)c1
AC50 (Cytochrome P450 2D6): 17.8 µM (inconclusive) | AC50 (Cytochrome P450 2C9): 14.1 µM (inconclusive)

Compound: N#CCSc1nc2ccc(N3CCCCC3)cc2c(=O)n1Cc1ccccc1
AC50 (Cytochrome P450 2D6): 5.62 µM (inconclusive) | AC50 (Cytochrome P450 2C9): 4.47 µM (inconclusive)

Compound: CC12CCC3C(CC=C4CC(O)CCC43C)C1C/C(=C\N1CCCC1)C2=O (stereo unspecified)
EC50 [1]: > 260 µM (inactive)

Compound: O=C(Nc1ccccc1)N1CC2(CCN(C(=O)c3cnccn3)CC2)C1
AC50 (Cytochrome P450 1A2): 20 µM (inconclusive)

Compound: Cc1onc(O)c1CC[C@H](N)C(=O)O
AC50 (Cytochrome P450 1A2): 39.8 µM (inconclusive)

Compound: CCOc1cccc(C2NCc3ccccc3-n3cccc32)c1O (stereo unspecified)
EC50 [1]: > 260 µM (inactive)

The next lines start with the values.

AC50 (Paired box protein Pax-8): 11.4 µM (active)
Compound: C[C@@H]1CN([C@H](C)CO)C(=O)Cc2cc(NC(=O)Nc3ccc(F)cc3)ccc2O[C@H]1CN(C)C(=O)Nc1ccc(C(F)(F)F)cc1

AC50 (Paired box protein Pax-8): 0.728 µM (active)
Compound: COc1cc(/C=N\NC(=O)c2ccc(-c3ccccc3)cc2)cc(OC)c1OC(C)=O

AC50 (Cytochrome P450 2D6): 39.8 µM (inconclusive)
Compound: CS(=O)(=O)Nc1cccc(-c2cncnc2NCc2cccnc2)c1

EC50 [1]: > 260 µM (inactive)
Compound: C=CCn1c(=O)c2c3c(sc2n2c(Nc4ccccc4)nnc12)CCCC3

EC50 [1]: 108 µM (active)
Compound: O=C(CSCc1ccc(Br)cc1)N1CCCC1

AC50 (Cytochrome P450 2D6): 20 µM (inconclusive)
Compound: Cn1cccc1C(=O)N1CCC[C@@]2(CCN(Cc3ccc(C#N)cc3)C2)C1

AC50 (Cytochrome P450 1A2): 39.8 µM (inconclusive)
Compound: NC1(C(=O)O)CC(C(=O)O)C1 (stereo unspecified)

AC50 (Cytochrome P450 2D6): 25.1 µM (inconclusive)
Compound: Cc1ccc(N(C(=O)Cn2nnc(-c3ccc(F)cc3)n2)C(CC(C)C)C(=O)NCC2CCCO2)cc1 (stereo unspecified)

AC50 (Cytochrome P450 1A2): 1.26 µM (inconclusive)
Compound: COc1ccc(NC(=S)Nc2ccccc2)cc1

AC50 (Cytochrome P450 2D6): 3.98 µM (inconclusive) | AC50 (Cytochrome P450 2C9): 39.8 µM (inconclusive)
Compound: CCCn1nc(C(=O)NCC(C)(C)N2CCOCC2)c2ccccc2c1=O

AC50 (Cytochrome P450 2C19): 20 µM (inconclusive) | AC50 (Cytochrome P450 2D6): 39.8 µM (inconclusive)
Compound: CCc1c2c(nc3c(C(C)C)cccc13)-c1cccc(=O)n1C2

AC50 (Cytochrome P450 2C19): 39.8 µM (inconclusive) | AC50 (Cytochrome P450 1A2): 28.2 µM (inconclusive)
Compound: CCn1c(COc2ccccc2)nnc1SCC(=O)c1cccc([N+](=O)[O-])c1
